ChEMBL document CHEMBL1201862, “PubChem BioAssay data set” (2004)
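Assay format: 96-well plates, 48-hour exposure. GI50 = concentration required for 50% inhibition of growth.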 Calls of active or inactive are those of the source. Rule as the data show it: active = GI50 up to about 1.1 µM and inactive = higher.

What was measured:
Test in all cases: inhibition of tumour cell growth, NCI panel, 48 h
SR = system: SR
SNB-75 = system: SNB-75
NCI-H522 = system: NCI-H522
PC-3 = system: PC-3
SK-MEL-2 = system: SK-MEL-2
SW-620 = system: SW-620
HCT-116 = system: HCT-116
HOP-92 = system: HOP-92
CCRF-CEM = system: CCRF-CEM
LOX IMVI = system: LOX IMVI
SF-539 = system: SF-539
SK-OV-3 = system: SK-OV-3
HT-29 = system: HT-29
SF-268 = system: SF-268
HL-60 = system: HL-60
KM12 = system: KM12
RPMI-8226 = system: RPMI-8226
NCI-H460 = system: NCI-H460
A549 = system: A549
HCC 2998 = system: HCC 2998

## O=C(N/N=C/c1ccc([N+](=O)[O-])cc1)c1cccc2nc3ccccc3nc12
SR
  GI50: > 39.5 µM (inactive)
SNB-75
  GI50: > 100 µM (inactive)
NCI-H522
  GI50: > 100 µM (inactive)
PC-3
  GI50: > 75.9 µM (inactive)
SK-MEL-2
  GI50: > 100 µM (inactive)
SW-620
  GI50: > 100 µM (inactive)
HCT-116
  GI50: > 100 µM (inactive)
HOP-92
  GI50: > 51.9 µM (inactive)
CCRF-CEM
  GI50: > 92.5 µM (inactive)
LOX IMVI
  GI50: > 85.5 µM (inactive)
SF-539
  GI50: > 38.5 µM (inactive)
SK-OV-3
  GI50: > 56.9 µM (inactive)
HT-29
  GI50: > 100 µM (inactive)
SF-268
  GI50: > 58.9 µM (inactive)
HL-60
  GI50: > 100 µM (inactive)
KM12
  GI50: > 100 µM (inactive)
RPMI-8226
  GI50: > 100 µM (inactive)
NCI-H460
  GI50: 1.5 µM (inactive)
A549
  GI50: 1.24 µM (inactive)

## CCN(CC)C(=O)Cn1c2c(c3ccccc31)CCCC2
SR
  GI50: 49.9 µM (inactive)
HCC 2998
  GI50: > 100 µM (inactive)
PC-3
  GI50: 68.5 µM (inactive)
SK-MEL-2
  GI50: > 100 µM (inactive)
SW-620
  GI50: > 100 µM (inactive)
HCT-116
  GI50: 40.9 µM (inactive)
HOP-92
  GI50: > 100 µM (inactive)
CCRF-CEM
  GI50: 89.3 µM (inactive)
LOX IMVI
  GI50: > 100 µM (inactive)
SF-539
  GI50: 47.2 µM (inactive)
SK-OV-3
  GI50: > 100 µM (inactive)
HT-29
  GI50: > 100 µM (inactive)
SF-268
  GI50: > 100 µM (inactive)
HL-60
  GI50: 45.2 µM (inactive)
RPMI-8226
  GI50: 56.8 µM (inactive)
NCI-H460
  GI50: > 100 µM (inactive)
A549
  GI50: 61.8 µM (inactive)

## COc1ccc(/N=N/c2ccc3oc(=O)c(C(=O)Nc4ccc(Cl)cc4)cc3c2)cc1
SR
  GI50: 2.38 µM (inactive)
HCC 2998
  GI50: > 10 µM (inactive)
SNB-75
  GI50: > 10 µM (inactive)
NCI-H522
  GI50: > 10 µM (inactive)
PC-3
  GI50: 2.56 µM (inactive)
SK-MEL-2
  GI50: > 10 µM (inactive)
SW-620
  GI50: 6.97 µM (inactive)
HOP-92
  GI50: 7.83 µM (inactive)
LOX IMVI
  GI50: 9.95 µM (inactive)
SF-539
  GI50: 5.18 µM (inactive)
SK-OV-3
  GI50: > 10 µM (inactive)
HT-29
  GI50: > 10 µM (inactive)
SF-268
  GI50: 3.72 µM (inactive)
KM12
  GI50: 4.32 µM (inactive)
RPMI-8226
  GI50: > 10 µM (inactive)
NCI-H460
  GI50: > 10 µM (inactive)

## Cc1nc2c(O)cc3c4c([nH]c3c2nc1C)C(=O)CCC4
SR
  GI50: 2.36 µM (inactive)
HCC 2998
  GI50: 1.71 µM (inactive)
PC-3
  GI50: 3.61 µM (inactive)
SK-MEL-2
  GI50: 2.59 µM (inactive)
SW-620
  GI50: 4.22 µM (inactive)
HCT-116
  GI50: 3.01 µM (inactive)
HOP-92
  GI50: 11.2 µM (inactive)
CCRF-CEM
  GI50: 4.07 µM (inactive)
LOX IMVI
  GI50: 2.29 µM (inactive)
SF-539
  GI50: 2.85 µM (inactive)
SK-OV-3
  GI50: 3.76 µM (inactive)
HT-29
  GI50: 1.52 µM (inactive)
SF-268
  GI50: 2.96 µM (inactive)
HL-60
  GI50: 3.72 µM (inactive)
KM12
  GI50: 3.69 µM (inactive)
RPMI-8226
  GI50: 2.24 µM (inactive)
NCI-H460
  GI50: 3.51 µM (inactive)
A549
  GI50: 2.4 µM (inactive)

## CCOc1ccc(-n2nnc3c(N)nc(N)nc32)cc1
SR
  GI50: > 100 µM (inactive)
SNB-75
  GI50: > 100 µM (inactive)
NCI-H522
  GI50: > 100 µM (inactive)
PC-3
  GI50: > 100 µM (inactive)
SK-MEL-2
  GI50: > 100 µM (inactive)
SW-620
  GI50: > 100 µM (inactive)
HCT-116
  GI50: > 100 µM (inactive)
HOP-92
  GI50: > 100 µM (inactive)
CCRF-CEM
  GI50: > 100 µM (inactive)
LOX IMVI
  GI50: > 100 µM (inactive)
SF-539
  GI50: > 100 µM (inactive)
SK-OV-3
  GI50: > 100 µM (inactive)
HT-29
  GI50: > 100 µM (inactive)
HL-60
  GI50: > 10 µM (inactive)
KM12
  GI50: > 100 µM (inactive)
RPMI-8226
  GI50: > 100 µM (inactive)
NCI-H460
  GI50: > 100 µM (inactive)
A549
  GI50: > 100 µM (inactive)

## C1=C[C@@H]2c3ccc4cnccc4c3NC[C@@H]2C1
SR
  GI50: > 100 µM (inactive)
HCC 2998
  GI50: > 100 µM (inactive)
SNB-75
  GI50: > 100 µM (inactive)
PC-3
  GI50: > 100 µM (inactive)
SW-620
  GI50: > 100 µM (inactive)
HCT-116
  GI50: > 100 µM (inactive)
HOP-92
  GI50: 75.2 µM (inactive)
CCRF-CEM
  GI50: > 100 µM (inactive)
SF-539
  GI50: > 100 µM (inactive)
SK-OV-3
  GI50: > 100 µM (inactive)
SF-268
  GI50: > 100 µM (inactive)
HL-60
  GI50: > 100 µM (inactive)
KM12
  GI50: 86.3 µM (inactive)
RPMI-8226
  GI50: > 100 µM (inactive)
NCI-H460
  GI50: > 100 µM (inactive)
A549
  GI50: > 100 µM (inactive)

## O=S(=O)(O)c1ccc2c(/N=N\c3ccc(F)cc3)c(O)c(S(=O)(=O)O)cc2c1
SR
  GI50: > 100 µM (inactive)
SNB-75
  GI50: > 100 µM (inactive)
NCI-H522
  GI50: > 100 µM (inactive)
PC-3
  GI50: > 100 µM (inactive)
SK-MEL-2
  GI50: > 100 µM (inactive)
SW-620
  GI50: > 100 µM (inactive)
HCT-116
  GI50: > 100 µM (inactive)
HOP-92
  GI50: > 100 µM (inactive)
CCRF-CEM
  GI50: > 100 µM (inactive)
LOX IMVI
  GI50: > 100 µM (inactive)
SK-OV-3
  GI50: > 100 µM (inactive)
HT-29
  GI50: > 100 µM (inactive)
SF-268
  GI50: > 100 µM (inactive)
HL-60
  GI50: < 0.01 µM (active)
KM12
  GI50: > 100 µM (inactive)
RPMI-8226
  GI50: > 100 µM (inactive)
A549
  GI50: > 100 µM (inactive)

## COc1ccc(OC)c([N+](=O)[O-])c1-c1nc2sccn2c1/C=N/N=C(N)N
SR
  GI50: 30.6 µM (inactive)
HCC 2998
  GI50: 30.4 µM (inactive)
NCI-H522
  GI50: 58.2 µM (inactive)
PC-3
  GI50: 53 µM (inactive)
SK-MEL-2
  GI50: 33.3 µM (inactive)
SW-620
  GI50: 93.3 µM (inactive)
HCT-116
  GI50: 48.4 µM (inactive)
HOP-92
  GI50: 23 µM (inactive)
CCRF-CEM
  GI50: 34.2 µM (inactive)
LOX IMVI
  GI50: 36.9 µM (inactive)
SF-539
  GI50: > 100 µM (inactive)
SK-OV-3
  GI50: 61.7 µM (inactive)
HT-29
  GI50: 63.8 µM (inactive)
SF-268
  GI50: 44.6 µM (inactive)
HL-60
  GI50: 79.6 µM (inactive)
KM12
  GI50: 27.6 µM (inactive)
RPMI-8226
  GI50: 33.5 µM (inactive)
NCI-H460
  GI50: 76.6 µM (inactive)
A549
  GI50: > 100 µM (inactive)
